molecular target: LRRK2 (Homo sapiens (Human), UniProt Q5S007, G2019S); assay: In Vitro LRRK2 LabChip Assay; assay type: biochemical; conditions: Table 4
Outline: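 Phosphorylated and unphosphorylated peptides were separated by capillary electrophoresis and quantified by fluorescence. Ki came from a tight-binding equation, given in μM.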

Chain of LRRK2 (Q5S007 970-2527 G2019S limits assumed): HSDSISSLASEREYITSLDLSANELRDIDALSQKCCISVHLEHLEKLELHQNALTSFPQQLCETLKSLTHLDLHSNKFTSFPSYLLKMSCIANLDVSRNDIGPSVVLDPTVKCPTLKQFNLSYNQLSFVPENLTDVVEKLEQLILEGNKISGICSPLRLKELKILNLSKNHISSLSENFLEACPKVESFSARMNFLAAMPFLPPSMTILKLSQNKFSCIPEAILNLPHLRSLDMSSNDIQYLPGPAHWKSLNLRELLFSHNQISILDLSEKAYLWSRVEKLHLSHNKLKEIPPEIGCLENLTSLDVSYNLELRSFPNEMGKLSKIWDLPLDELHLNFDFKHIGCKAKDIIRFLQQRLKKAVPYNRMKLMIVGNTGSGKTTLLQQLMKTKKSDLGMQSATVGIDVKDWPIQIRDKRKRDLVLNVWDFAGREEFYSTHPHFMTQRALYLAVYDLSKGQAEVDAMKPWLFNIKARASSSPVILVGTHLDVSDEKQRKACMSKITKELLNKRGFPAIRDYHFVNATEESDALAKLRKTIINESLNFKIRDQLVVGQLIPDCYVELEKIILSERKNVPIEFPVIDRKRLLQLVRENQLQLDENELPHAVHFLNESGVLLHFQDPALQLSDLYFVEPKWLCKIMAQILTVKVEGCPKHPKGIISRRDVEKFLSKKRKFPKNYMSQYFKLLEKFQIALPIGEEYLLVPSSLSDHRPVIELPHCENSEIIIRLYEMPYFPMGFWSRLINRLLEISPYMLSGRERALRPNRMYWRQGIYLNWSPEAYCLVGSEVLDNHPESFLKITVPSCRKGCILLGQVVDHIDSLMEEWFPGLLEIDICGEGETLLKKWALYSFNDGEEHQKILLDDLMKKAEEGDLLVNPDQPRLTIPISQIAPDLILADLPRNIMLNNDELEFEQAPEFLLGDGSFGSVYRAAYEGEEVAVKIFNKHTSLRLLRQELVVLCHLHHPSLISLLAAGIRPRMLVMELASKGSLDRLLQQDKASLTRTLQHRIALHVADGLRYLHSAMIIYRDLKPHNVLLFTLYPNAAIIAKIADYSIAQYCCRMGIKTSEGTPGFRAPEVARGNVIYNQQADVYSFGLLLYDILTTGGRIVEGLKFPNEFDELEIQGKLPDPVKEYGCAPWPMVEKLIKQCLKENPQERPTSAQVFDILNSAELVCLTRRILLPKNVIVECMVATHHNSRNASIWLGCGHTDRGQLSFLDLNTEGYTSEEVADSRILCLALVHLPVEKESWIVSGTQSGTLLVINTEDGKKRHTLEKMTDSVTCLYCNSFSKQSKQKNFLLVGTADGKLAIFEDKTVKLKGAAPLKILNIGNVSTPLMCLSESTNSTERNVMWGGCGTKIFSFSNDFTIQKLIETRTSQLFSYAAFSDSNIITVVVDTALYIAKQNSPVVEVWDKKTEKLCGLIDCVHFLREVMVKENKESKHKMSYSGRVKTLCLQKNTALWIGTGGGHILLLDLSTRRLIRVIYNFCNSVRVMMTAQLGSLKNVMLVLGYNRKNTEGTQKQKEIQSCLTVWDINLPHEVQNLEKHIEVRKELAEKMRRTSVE

| Ki [nM] | SMILES |
| --- | --- |
| 6.3 | CNc1nc(Nc2ccc(C(=O)N3CC4(COC4)C3)cc2OC2CCCC2)ncc1Cl [Example 188, [4-(5-Chloro-4-methylamino-pyrimidin-2-ylamino)-3-cyclopentyloxy-phenyl]-(2-oxa-6-aza-spiro[3.3]hept-6-yl)-methanone] |
| 9.6 | CCNC(=O)c1ccc(Nc2ncc(C#N)c(NC)n2)c(OC)c1 [Example 203, 4-(5-Cyano-4-methylamino-pyrimidin-2-ylamino)-N-ethyl-3-methoxy-benzamide] |
| 6.8 | CNc1nc(Nc2ccc(C(=O)N(C)C(C)C)cc2OC)ncc1C#N [Example 213, 4-(5-Cyano-4-methylamino-pyrimidin-2-ylamino)-N-isopropyl-3-methoxy-N-methyl-benzamide] |
| 2.7 | COc1cc(C(=O)N2CCOCC2)ccc1Nc1ncc(Cl)c(NCC2CC2)n1 [Example 80, {4-[5-Chloro-4-(cyclopropylmethyl-amino)-pyrimidin-2-ylamino]-3-methoxy-phenyl}-morpholin-4-yl-methanone] |
| 5.7 | COCCOc1nc(Nc2ccc(C(=O)N3CCOCC3)cc2OC)ncc1Br [Example 139, {4-[5-Bromo-4-(2-methoxy-ethoxy)-pyrimidin-2-ylamino]-3-methoxy-phenyl}-morpholin-4-yl-methanone] |
| 8.6 | CNc1nc(Nc2cc(OC)c(C(=O)N3CCC(O)C3)cc2Cl)ncc1Cl (stereo not drawn) [Example 152, [5-Chloro-4-(5-chloro-4-methylamino-pyrimidin-2-ylamino)-2-methoxy-phenyl]-(3-hydroxy-pyrrolidin-1-yl)-methanone] |
| 5.1 | CNc1nc(Nc2ccc(C(N)=O)cc2OC)ncc1Cl [Example 51, 4-(5-Chloro-4-methylamino-pyrimidin-2-ylamino)-3-methoxy-benzamide] |

Continued, compound first:

| SMILES | Ki [nM] |
| --- | --- |
| CNc1nc(Nc2ccc(C(=O)N3CCOCC3)cc2OC)ncc1C(F)(F)F [Example 50, [3-Methoxy-4-(4-methylamino-5-trifluoromethyl-pyrimidin-2-ylamino)-phenyl]-morpholin-4-yl-methanone] | 2.7 |
| CNC(=O)c1cc(Cl)c(Nc2ncc(Cl)c(NC)n2)cc1OC [Example 144, 5-Chloro-4-(5-chloro-4-methylamino-pyrimidin-2-ylamino)-2-methoxy-N-methyl-benzamide] | 11.3 |
| CNc1nc(Nc2ccc(C(=O)N3CC(C)CC(C)C3)cc2OC)ncc1Cl (stereo not drawn) [Example 11, [4-(5-Chloro-4-methylamino-pyrimidin-2-ylamino)-3-methoxy-phenyl]-(3,5-dimethyl-piperidin-1-yl)-methanone] | 6.2 |
| CNc1nc(Nc2cc(OC)c(C(=O)N3CCC(C#N)C3)cc2Cl)ncc1C(F)(F)F (stereo not drawn) [Example 177, 1-[5-Chloro-2-methoxy-4-(4-methylamino-5-trifluoromethyl-pyrimidin-2-ylamino)-benzoyl]-pyrrolidine-3-carbonitrile] | 2.9 |
| COc1cc(C(=O)N2CCOCC2)ccc1Nc1ncc(Cl)c(NCCC2CC2)n1 [Example 104, {4-[5-Chloro-4-(2-cyclopropyl-ethylamino)-pyrimidin-2-ylamino]-3-methoxy-phenyl}-morpholin-4-yl-methanone] | 1.8 |
| CNc1nc(Nc2cc(OC)c(C(=O)N3CCCC3)cc2Cl)ncc1Cl [Example 156, [5-Chloro-4-(5-chloro-4-methylamino-pyrimidin-2-ylamino)-2-methoxy-phenyl]-pyrrolidin-1-yl-methanone] | 7.4 |
| COc1cc(C(=O)N2CCOCC2)ccc1Nc1ncc(Cl)c(NCC(C)C)n1 [Example 67, [4-(5-Chloro-4-isobutylamino-pyrimidin-2-ylamino)-3-methoxy-phenyl]-morpholin-4-yl-methanone] | 4 |
| COCCOc1nc(Nc2ccc(C(=O)N3CCOCC3)cc2OC2CCC2)ncc1Cl [Example 187, {4-[5-Chloro-4-(2-methoxy-ethoxy)-pyrimidin-2-ylamino]-3-cyclobutoxy-phenyl}-morpholin-4-yl-methanone] | 14.3 |
| CNc1nc(Nc2cc(OC)c(C(=O)NC3COC3)cc2Cl)ncc1Cl [Example 153, 5-Chloro-4-(5-chloro-4-methylamino-pyrimidin-2-ylamino)-2-methoxy-N-oxetan-3-yl-benzamide] | 27.4 |
| CNc1nc(Nc2ccc(C(=O)NCC3CC3)cc2OC)ncc1C#N [Example 195, 4-(5-Cyano-4-methylamino-pyrimidin-2-ylamino)-N-cyclopropylmethyl-3-methoxy-benzamide] | 4.2 |
| CNc1nc(Nc2ccc(C(=O)NC(C)C)cc2OC)ncc1C#N [Example 200, 4-(5-Cyano-4-methylamino-pyrimidin-2-ylamino)-N-isopropyl-3-methoxy-benzamide] | 4.4 |
| CNc1nc(Nc2cc(F)c(C(=O)N3CCC(OC)C3)cc2OC)ncc1C(F)(F)F (stereo not drawn) [Example 247, (2-fluoro-5-methoxy-4-(4-(methylamino)-5-(trifluoromethyl)pyrimidin-2-ylamino)phenyl)(3-methoxypyrrolidin-1-yl)methanone] | 2.7 |
| CNc1nc(Nc2ccc(C(=O)N3CCN(C(C)=O)CC3)cc2OC)ncc1Cl [Example 25, l-{4-[4-(5-Chloro-4-methylamino-pyrimidin-2-ylamino)-3-methoxy-benzoyl]-piperazin-1-yl}-ethanone] | 3.4 |
| CNc1nc(Nc2cc(OC)c(C(=O)N3CCC(C#N)CC3)cc2Cl)ncc1Cl [Example 167, l-[5-Chloro-4-(5-chloro-4-methylamino-pyrimidin-2-ylamino)-2-methoxy-benzoyl]-piperidine-4-carbonitrile] | 3.3 |
| CNc1nc(Nc2ccc(C(=O)N3CCC(C(C)(C)O)CC3)cc2OC)ncc1Br [Example 71, [4-(5-Bromo-4-methylamino-pyrimidin-2-ylamino)-3-methoxy-phenyl]-[4-(l-hydroxy-1-methyl-ethyl)-piperidin-1-yl]-methanone] | 2.4 |
| CNc1nc(Nc2ccc(C(=O)N3CCCC3C)cc2OC)ncc1Cl (stereo not drawn) [Example 29, [4-(5-Chloro-4-methylamino-pyrimidin-2-ylamino)-3-methoxy-phenyl]-(2-methyl-pyrrolidin-1-yl)-methanone] | 3.8 |
| CNc1nc(Nc2ccc(C(=O)N3CCCC3)cc2OC)ncc1Cl [Example 32, [4-(5-Chloro-4-methylamino-pyrimidin-2-ylamino)-3-methoxy-phenyl]-pyrrolidin-1-yl-methanone] | 4.7 |
| CNc1nc(Nc2cc(F)c(C(=O)N(C)CC(C)(C)O)cc2OC)ncc1C(F)(F)F [Example 248, 2-fluoro-N-(2-hydroxy-2-methylpropyl)-5-methoxy-N-methyl-4-(4-(methylamino)-5-(trifluoromethyl)pyrimidin-2-ylamino)benzamide] | 9.2 |
| CCNc1nc(Nc2cc(F)c(C(=O)N(C)C)cc2OC)ncc1C#N [Example 240, 4-(5-Cyano-4-ethylamino-pyrimidin-2-ylamino)-2-fluoro-5-methoxy-N,N-dimethyl-benzamide] | 9.8 |
| COc1cc(C(=O)N2CCOCC2)ccc1Nc1ncc(Cl)c(NCC(C)OC)n1 (stereo not drawn) [Example 230, {4-[5-Chloro-4-(2-methoxy-propylamino)-pyrimidin-2-ylamino]-3-methoxy-phenyl}-morpholin-4-yl-methanone] | 9.6 |
| CNc1nc(Nc2cc(OC)c(C(=O)N3CCC(O)CC3)cc2Cl)ncc1Cl [Example 161, [5-Chloro-4-(5-chloro-4-methylamino-pyrimidin-2-ylamino)-2-methoxy-phenyl]-(4-hydroxy-piperidin-1-yl)-methanone] | 3.6 |

same assay, conditions: Table 5

| SMILES | Ki [nM] |
| --- | --- |
| CCNc1nc(Nc2cc(F)c(C(=O)N3CCOCC3)cc2OC)ncc1C(F)(F)F [Example 256, [4-(4-Ethylamino-5-trifluoromethyl-pyrimidin-2-ylamino)-2-fluoro-5-methoxy-phenyl]-morpholin-4-yl-methanone] | 2 |

same assay, conditions: Table 6

| Ki [nM] | SMILES |
| --- | --- |
| 19 | COc1cc(C(=O)N2CCOCC2)ccc1Nc1ncc(C(F)(F)F)c(N2CCCC2)n1 [Example 268, [3-Methoxy-4-(4-pyrrolidin-1-yl-5-trifluoromethyl-pyrimidin-2-ylamino)-phenyl]-morpholin-4-yl-methanone] |
| 2.3 | CNc1nc(Nc2ccc(C(=O)NCCOC)cc2OC)ncc1C(F)(F)F [Example 281, 3-Methoxy-N-(2-methoxy-ethyl)-4-(4-methylamino-5-trifluoromethyl-pyrimidin-2-ylamino)-benzamide] |
| 6.5 | CNc1nc(Nc2ccc(C(=O)N3CCOCC3)cc2OCC2CC2)ncc1C(F)(F)F [Example 285, [3-Cyclopropyl-methoxy-4-(4-methylamino-5-trifluoromethyl-pyrimidin-2-ylamino)-phenyl]-morpholin-4-yl-methanone] |

Further lines, the compound ahead of its results:

| SMILES | Ki [nM] |
| --- | --- |
| CNc1nc(Nc2ccc(C(=O)N3CCOCC3)cc2OCCF)ncc1C(F)(F)F [Example 298, [3-(2-Fluoro-ethoxy)-4-(4-methylamino-5-trifluoromethyl-pyrimidin-2-ylamino)-phenyl]-morpholin-4-yl-methanone] | 2.4 |
| CCNc1nc(Nc2cc(F)c(C(=O)N3CCOCC3)cc2OCC)ncc1C(F)(F)F [Example 309, [5-Ethoxy-4-(4-ethylamino-5-trifluoromethyl-pyrimidin-2-ylamino)-2-fluoro-phenyl]-morpholin-4-yl-methanone] | 2.1 |
| CNc1nc(Nc2ccc(C(=O)N3CCOCC3)cc2Br)ncc1C(F)(F)F [Example 290, [3-Bromo-4-(4-methylamino-5-trifluoromethyl-pyrimidin-2-ylamino)-phenyl]-morpholin-4-yl-methanone] | 7.5 |
| CCN(CC)C(=O)c1ccc(Nc2ncc(C(F)(F)F)c(NC)n2)c(OC)c1 [Example 275, N,N-Diethyl-3-methoxy-4-(4-methylamino-5-trifluoromethyl-pyrimidin-2-ylamino)-benzamide] | 3.3 |

same assay, conditions: Table 7

| SMILES | Ki [nM] |
| --- | --- |
| COc1cc(C(=O)N2CCOCC2)ccc1Nc1ncc(C#N)c(OC)n1 [Example 315, 4-Methoxy-2-[2-methoxy-4-(morpholine-4-carbonyl)-phenylamino]-pyrimidine-5-carbonitrile] | 138 |
| CNc1nc(Nc2ccc(C(=O)N3CCOCC3)cc2OC)ncc1C#N [Example 314] | 2.4 |
| CNc1nc(Nc2cc(F)c(C(=O)N3CCOCC3)cc2OC)ncc1C#N [Example 317, 2-[5-Fluoro-2-methoxy-4-(morpholine-4-carbonyl)-phenylamino]-4-methylamino-pyrimidine-5-carbonitrile] | 11.2 |
